Assay results reported in patent US20040122068A1, “Pramipexole for the treatment of HIV dementia” (Boehringer Ingelheim Pharma GmbH & Co. KG, priority 2002, published 2004).

Columns and labels:
isolated mitochondria = experiment: In vitro mitochondria test: H2O2 formation of isolated mitochondria (amplexRed/horseradish peroxidase kinetic test); assay type: biochemical; conditions: for Quantity of H2O2 formed: 5 mM succinate alone = 100.0
Text: A. The Reduced H2O2 Formation of Isolated Mitochondria as In Vitro Parameters for Endogenous Radical Stress:
Mitochondria reduce 95% of the oxygen to water.
Overproduction and/or reduced detoxification of superoxide anion and hydrogen peroxide leads to the development of oxidative stress. This is crucially implicated in neuronal cell death in all kinds of neurodegenerative diseases.
In the presence of the energy substrate succinate, isolated mitochondria produce H2O2, which results from the dismutation of superoxide anion. In the presence of amplexRed™ and horseradish peroxidase, the fluorogenic chromophor resorufin is formed, which is measured and quantified in a kinetic test. The quantity of H2O2 formed by the mitochondria can be increased by the addition of the quinone analogue duroquinone.

aconitase = conditions: mice, oral, 4 days, 2×1 mg/kg/d; brain mitochondria; control (0.9% saline) 100±8%; n=4
Method: Mice (C57BL6) were treated with pramipexole by oral route for 4 days in a dose of 2×1 mg/kg KG/d. The animals were then anaesthetised, killed, their brains were removed and the mitochondria (location of the enzyme and site of the radical formation) were isolated. Then the activity was determined by means of a coupled optical test.

Row | Quantity of H2O2 formed (isolated mitochondria; 5 mM succinate + 3 μM duroquinone + 100 μM pramipexole) | duroquinone-induced formation of H2O2 reduced to (isolated mitochondria; summary of Table 1) | Compound | Quantity of H2O2 formed (isolated mitochondria; 5 mM succinate + 3 μM duroquinone) | aconitase activity (aconitase)
1 |  |  | CC1=C(C)C(=O)C(C)=C(C)C1=O [duroquinone] | 152.2 ± 1.4% | 
2 | 58.3 ± 24.6% | 50-60% | CCCNC1CCc2nc(N)sc2C1 (stereo not shown) [pramipexole, 2-amino-4,5,6,7-tetrahydro-6-n-propylamino-benzothiazole] |  | 153±16%
